pIC50: −log10 of the molar value.
Columns and labels:
[1] = system: IL-17A-induced G-CSF production in human normal keratinocyte (NHK); assay: NHK Assay: IL-17A-induced G-CSF production in human normal keratinocytes; assay type: cell-based; conditions: 24 h, adult normal human keratinocytes, IL-17A 5 ng/mL, simple average if tested more than once
Outline: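 G-CSF released by primary adult human keratinocytes after 24 h at 37° C was quantified by HTRF via standard curve to give IC50. Stimulus was 5 ng/mL IL-17A pre-mixed 1 h at rt with compound dilutions, in 5% FBS and 0.2% DMSO. Cell viability was assessed in parallel with CellTiter-Glo.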

[2] = biological target: IL-17A(FLAG-Tagged): IL-17RA(His-Tagged) (Homo sapiens, UniProt Q16552, K93Q); assay: IL-17A(FLAG-Tagged): IL-17RA(His-Tagged) Binding Disruption Eu-HTRF Assay; conditions: IL-17A/IL-17RA binding disruption, simple average if tested more than once
Chain of UniProt Q16552 (Q16552 with tags, fused parts or gaps K93Q): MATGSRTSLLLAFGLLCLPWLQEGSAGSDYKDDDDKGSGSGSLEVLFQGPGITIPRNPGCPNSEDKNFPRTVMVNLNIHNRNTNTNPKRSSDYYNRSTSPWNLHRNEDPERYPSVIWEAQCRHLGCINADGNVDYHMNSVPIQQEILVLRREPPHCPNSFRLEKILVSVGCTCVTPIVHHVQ
Outline: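 IC50 comes from a one-site competition fit of the HTRF 665/620 nm ratio. Compound dilutions (2-fold, 22 points) were held 1 h rt with FLAG-tagged IL-17A dimer, then His-tagged IL-17RA plus Eu-cryptate anti-FLAG and D2 anti-His antibodies were added for 2 h rt.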

Structure (SMILES) | pIC50 [2] | pIC50 ([1]; Homo sapiens, Keratinocyte) | pIC50 [1]
O=C(CCC(F)(F)F)N[C@@H](c1cnn2cc([C@@H](NC(=O)c3cccc(C4CC4)c3)C3CCC(F)(F)CC3)nc2c1)C1CC1 [Example 166, 3-Cyclopropyl-N—((S)-(7-((R)-cyclopropyl(4,4,4-trifluorobutanamido)methyl)imidazo[1,2-b]pyridazin-2-yl)(4,4-difluorocyclohexyl)methyl)benzamide] | 7.24 | 6.89 | 
CCn1nccc1C(=O)N[C@H](c1cn2ncc([C@H](NC(=O)CC3CC(F)(F)C3)C3CC3)cc2n1)C1CCC(F)(F)CC1 [Example 126, N—((S)-(7-((R)-Cyclopropyl(2-(3,3-difluorocyclobutyl)acetamido)methyl)imidazo[1,2-b]pyridazin-2-yl)(4,4-difluorocyclohexyl)methyl)-1-ethyl-1H-pyrazole-5-carboxamide] | 7.34 | 7.08 | 
Cc1cc(C(=O)N[C@H](c2cn3ncc([C@H](NC(=O)CCC(F)(F)F)C4CC4)cc3n2)C2CCC(F)(F)CC2)n(C(C)C)n1 [Example 78, N—((S)-(7-((R)-Cyclopropyl(4,4,4-trifluorobutanamido)methyl)imidazo[1,2-b]pyridazin-2-yl)(4,4-difluorocyclohexyl)methyl)-1-isopropyl-3-methyl-1H-pyrazole-5-carboxamide] | 6.59 | 6.48 | 
CC(C)n1nccc1C(=O)N[C@H](c1cn2ncc([C@H](NC(=O)CC(C)C(F)(F)F)C3CC3)cc2n1)C1CCC(F)(F)CC1 (single isomer, unassigned) [Example 121, N—((S)-(7-((R)-Cyclopropyl((R*)-4,4,4-trifluoro-3-methylbutanamido)methyl)imidazo[1,2-b]pyridazin-2-yl)(4,4-difluorocyclohexyl)methyl)-1-isopropyl-1H-pyrazole-5-carboxamide] | 7.06 | 6.96 | 
Cc1ccnc(C(=O)N[C@H](c2cn3ncc([C@H](NC(=O)CCC(F)(F)F)C4CC4)cc3n2)C2CCC(F)(F)CC2)n1 [Example 212, N—((S)-(7-((R)-Cyclopropyl(4,4,4-trifluorobutanamido)methyl)imidazo[1,2-b]pyridazin-2-yl)(4,4-difluorocyclohexyl)methyl)-4-methylpyrimidine-2-carboxamide] | 4.89 | < 4.70 | 
O=C(CCC(F)(F)F)N[C@@H](c1cnn2cc([C@@H](NC(=O)c3cnn(CCF)n3)C3CCC(F)(F)CC3)nc2c1)C1CC1 [Example 107, N—((S)-(7-((R)-Cyclopropyl(4,4,4-trifluorobutanamido)methyl)imidazo[1,2-b]pyridazin-2-yl)(4,4-difluorocyclohexyl)methyl)-2-(2-fluoroethyl)-2H-1,2,3-triazole-4-carboxamide] | 6.82 | 6.01 | 
O=C(CCC(F)(F)F)N[C@@H](c1cnn2cc([C@@H](NC(=O)c3conc3CC3CC3)C3CCC(F)(F)CC3)nc2c1)C1CC1 [Example 236, N—((S)-(7-((R)-Cyclopropyl(4,4,4-trifluorobutanamido)methyl)imidazo[1,2-b]pyridazin-2-yl)(4,4-difluorocyclohexyl)methyl)-3-(cyclopropylmethyl)isoxazole-4-carboxamide] | 7.34 | 6.44 | 
O=C(CCC(F)(F)F)NC(c1cnn2cc([C@@H](NC(=O)c3ccccc3)C3CCC(F)(F)CC3)nc2c1)C1CC1 (single isomer, unassigned) [Example 12, N—((S)-(7-((R*)-Cyclopropyl(4,4,4-trifluorobutanamido)methyl)imidazo[1,2-b]pyridazin-2-yl)(4,4-difluorocyclohexyl)methyl)benzamide] | 7.07 |  | 6.74

Further lines, with some results ahead:

pIC50 [2] | Structure (SMILES) | pIC50 ([1]; Homo sapiens, Keratinocyte) | pIC50 [1]
7.32 | Cc1nonc1C(=O)N[C@H](c1cn2ncc([C@H](NC(=O)CC(C)C(F)F)C3CC3)cc2n1)C1CCC(F)(F)CC1 (single isomer, unassigned) [Example 264, N—((S)-(7-((R)-Cyclopropyl((R*)-4,4-difluoro-3-methylbutanamido)methyl)imidazo[1,2-b]pyridazin-2-yl)(4,4-difluorocyclohexyl)methyl)-4-methyl-1,2,5-oxadiazole-3-carboxamide] |  | 6.46
6.62 | O=C(CCC(F)(F)F)N[C@@H](c1cnn2cc([C@@H](NC(=O)[C@H]3CC34CCC4)C3CCC(F)(F)CC3)nc2c1)C1CC1 (relative stereo) [Example 367, (S*)—N—((S)-(7-((R*)-Cyclopropyl(4,4,4-trifluorobutanamido)methyl)imidazo[1,2-b]pyridazin-2-yl)(4,4-difluorocyclohexyl)methyl)spiro[2.3]hexane-1-carboxamide] | 6.20 | 
6.25 | Cc1nonc1C(=O)N[C@H](c1cn2ncc([C@H](NC(=O)C(C)CC(F)F)C3CC3)cc2n1)C1CCC(F)(F)CC1 (single isomer, unassigned) [Example 330, N—((S)-(7-((R)-Cyclopropyl((R*)-4,4-difluoro-2-methylbutanamido)methyl)imidazo[1,2-b]pyridazin-2-yl)(4,4-difluorocyclohexyl)methyl)-4-methyl-1,2,5-oxadiazole-3-carboxamide] |  | 5.66
5.92 | O=C(CCC(F)(F)F)N[C@@H](c1cnn2cc([C@@H](NC(=O)c3ccnnc3)C3CCC(F)(F)CC3)nc2c1)C1CC1 [Example 457, N—((S)-(7-((R)-Cyclopropyl(4,4,4-trifluorobutanamido)methyl)imidazo[1,2-b]pyridazin-2-yl)(4,4-difluorocyclohexyl)methyl)pyridazine-4-carboxamide] | 5.54 | 
6.72 | CC(C)n1nccc1C(=O)N[C@H](c1cn2ncc(C(NC(=O)CC3CC(F)(F)C3)C(F)F)cc2n1)C1CCC(F)(F)CC1 (single isomer, unassigned) [Example 519, N—((S)-(7-((S*)-1-(2-(3,3-Difluorocyclobutyl)acetamido)-2,2-difluoroethyl)imidazo[1,2-b]pyridazin-2-yl)(4,4-difluorocyclohexyl)methyl)-1-isopropyl-1H-pyrazole-5-carboxamide] |  | 7.28
6.42 | Cc1ncoc1C(=O)N[C@H](c1cn2ncc([C@H](NC(=O)CCC(F)(F)F)C3CC3)cc2n1)C1CCC(F)(F)CC1 [Example 471, N—((S)-(7-((R)-Cyclopropyl(4,4,4-trifluorobutanamido)methyl)imidazo[1,2-b]pyridazin-2-yl)(4,4-difluorocyclohexyl)methyl)-4-methyloxazole-5-carboxamide] | 5.64 | 
6.92 | Cc1nonc1C(=O)N[C@H](c1cn2ncc([C@H](NC(=O)CCCC(F)F)C3CC3)cc2n1)C1CCC(F)(F)CC1 [Example 326, N—((S)-(7-((R)-Cyclopropyl(5,5-difluoropentanamido)methyl)imidazo[1,2-b]pyridazin-2-yl)(4,4-difluorocyclohexyl)methyl)-4-methyl-1,2,5-oxadiazole-3-carboxamide] | 5.96 | 
6.52 | O=C(CCC(F)(F)F)N[C@@H](c1cnn2cc([C@@H](NC(=O)c3cnn(CCNCC(F)(F)CCl)n3)C3CCC(F)(F)CC3)nc2c1)C1CC1 [Example 486, 2-[2-[(3-Chloro-2,2-difluoro-propyl)amino]ethyl]-N—[(S)-[7-[(R)-cyclopropyl-(4,4,4-trifluorobutanamido)methyl]imidazo[1,2-b]pyridazin-2-yl]-(4,4-difluorocyclohexyl)methyl]triazole-4-carboxamide] | 5.96 | 

Source: patent publication US11702422B2, “Imidazopyridazines as modulators of IL-17” (Janssen Pharmaceutica NV, priority 2020, dated 2023)
